Source: article PMC3400893 (Clinical Pharmacology and Therapeutics, 2012)

Tests used:
[1] = system: patients with T2DM; experiment: 28-day randomized placebo-controlled study: efficacy/pharmacodynamics; format: in vivo, human; conditions: for Decrease in FPG from baseline after correcting for changes in placebo values: after 28 days; for OGTT glucose excursions above baseline FPG lower than placebo: corrected for FPG at hour 0
[2] = system: patients with T2DM; experiment: Single-dose three-way crossover study: pharmacodynamics; format: in vivo, human
[3] = system: healthy volunteers; experiment: Phase I trial in healthy volunteers; format: in vivo, human; conditions: 300-mg dose, phase I trial (data not shown)
[4] = system: patients with T2DM; experiment: 28-day study: safety, adverse events and clinical laboratory values
[5] = 28-day study: plasma LX4211 pharmacokinetics; format: in vivo, human; conditions: for Tmax: both, human, plasma, oral
[6] = system: humans; conditions: taken orally at high doses; ref [46]; cited from earlier work
[7] = ref [47],[48]; cited from earlier work
[8] = single 300-mg dose of any of the LX4211 formulations
[9] = 150 or 300 mg once daily for 28 days

## CCOc1ccc(Cc2cc([C@@H]3O[C@H](SC)[C@@H](O)[C@H](O)[C@H]3O)ccc2Cl)cc1 [LX4211, (2S,3R,4R,5S,6R)-2-(4-chloro-3-(4-ethoxybenzyl)phenyl)-6-(methylthio)tetrahydro-2H-pyran-3,4,5-triol]
[1]; 150 mg once daily, day 7, placebo 9 mg/dl increase
  FPG reduction from baseline: 30 mg/dL
[1]; 150 mg
  Decrease in FPG from baseline after correcting for changes in placebo values: 39 mg/dL
[1]; 150 mg, day 1
  Net 24-h UGE increase relative to placebo: 44 g/day
[1]; 150 mg, day 2
  OGTT glucose AUC (hour 0 to 4) lower than placebo: 30%
[1]; 150 mg, day 13
  OGTT glucose AUC (hour 0 to 4) lower than placebo: 35%
[1]; 150 mg, day 27
  OGTT glucose AUC (hour 0 to 4) lower than placebo: 38%
  OGTT glucose excursions above baseline FPG lower than placebo: 46%
[1]; 150 mg, day 28
  Decrease from baseline HbA1c after correcting for changes in placebo values: 0.66
  Net 24-h UGE increase relative to placebo: 37 g/day
[1]; 300 mg
  Decrease in FPG from baseline after correcting for changes in placebo values: 55 mg/dL
[1]; 300 mg, day 1
  Net 24-h UGE increase relative to placebo: 65 g/day
[1]; 300 mg, day 2
  OGTT glucose AUC (hour 0 to 4) lower than placebo: 30%
[1]; 300 mg, day 13
  OGTT glucose AUC (hour 0 to 4) lower than placebo: 36%
[1]; 300 mg, day 27
  OGTT glucose AUC (hour 0 to 4) lower than placebo: 39%
  OGTT glucose excursions above baseline FPG lower than placebo: 46%
[1]; 300 mg, day 28
  Decrease from baseline HbA1c after correcting for changes in placebo values: 0.76
  Net 24-h UGE increase relative to placebo: 48 g/day
[1]; LX4211-treated groups
  Amount of glucose excreted in the first 8 h vs the period spanning 8–24 h: comparable
[1]; LX4211-treated groups, day 1 (similar on day 28), post hoc analysis
  Total GLP-1 levels after meals: nonsignificant increase
[1]; both LX4211-treated groups (150 and 300 mg), by day 14
  Mean serum triglyceride (TG) level (fell to within the normal range): < 151 mg/dL
[1]; both LX4211 groups, day 27
  Mean homeostasis model assessment of insulin resistance vs placebo: significantly lower
[1]; both doses, post hoc analysis
  Serum TG vs placebo: statistically significant TG reductions
[1]; both treatment groups, days 1, 14 and 28
  24-h UGE vs placebo: significantly increased
[1]; each treatment group, days 1, 7, 21 and 28
  2-h postprandial glucose (PPG) levels vs placebo: significantly lowered
[1]; patients who received LX4211 (150 or 300 mg), day 28, placebo 18%
  Patients with HbA1c levels ≤7.0%: 50%
[2]; single 300-mg dose
  Glucagon values vs day −1: not altered
[2]; [8]
  Plasma insulin between 0 and 13 h vs day −1: significantly decreased
  Total GLP-1 between 0 and 13 h vs day −1: significantly increased
  Total PYY between 0 and 13 h vs day −1: significantly increased
  UGE over the next 24 h vs pretreatment day (day −1): significantly increased
[3]
  Tolerability and glycosuric effect: well tolerated and produced a maximal glycosuric effect
[4]; [9]
  Renal toxicity (laboratory data): no evidence of renal toxicity
  Treatment-emergent urinary tract infections, genital infections, CV events, episodes of hypoglycemia: no treatment-emergent urinary tract infections, genital infections, CV events, or episodes of hypoglycemia
[4]; LX4211-treated groups, day 1
  24-h urine volume relative to placebo: slight but nonsignificant increase
[4]; LX4211-treated groups, days 1, 14, 28
  Urinary calcium excretion: at no time during the study was urinary calcium excretion increased
[4]; at the doses and schedule employed (150 or 300 mg once daily, 28 days)
  Safety and tolerability: safe and well tolerated
[4]; day 1, statistically significant in the 300 mg group
  Urinary sodium and chloride excretion relative to placebo: modest increases
[4]; even after challenge with 75 g of glucose during OGTTs
  Frequency of gastrointestinal side effects relative to placebo: did not observe an increase
[5]; 150 and 300 mg, oral liquid
  Time after dosing at which Cmax appeared: 0.5 to 2.0 h
[5]; 150 vs 300 mg
  Dose proportionality of increases in Cmax and AUC: slightly more than dose-proportional
[5]; based on Cmax, AUC0–tau, Cmin, possibly even by day 7
  Steady state reached: ≤ 14 days
[5]; Median tmax, days 14 and 28, the two dose groups
  Tmax: 1 to 1.5 h
[5]; tmax, individual values, the two dose groups
  Tmax: 0.48 to 2.02 h
[5]; each LX4211 dose, oral liquid
  Time at which plasma concentrations were detected: ≤ 15 min

## O=C(CCc1ccc(O)cc1)c1c(O)cc(O)cc1O[C@@H]1O[C@H](CO)[C@@H](O)[C@H](O)[C@H]1O [Phlorizin, phlorizin]
[6]
  Nausea: induces nausea
[7]
  Conversion in the small intestine: rapidly converted to phloretin
